Experimental data from article PMC6067752, “Investigations on the mode of action of gephyronic acid, an inhibitor of eukaryotic protein translation from myxobacteria” (PLoS ONE, 2018).

Assays:
[1] = target: T1, eukaryotic initiation factor 2 subunit alpha (eIF2α) (Homo sapiens, UniProt P05198); assay: DARTS (pronase protection, western blot); format: biochemical; conditions: KB-3-1 cell lysate; native protein; 2 h at room temperature with compound, pronase 30 min at 37 °C; indirect binding evidence
T1 construct: gene EIF2S1; native endogenous protein in KB-3-1 cell lysate (M-PER), 36 kDa band; alpha subunit of the heterotrimeric eIF2 complex; detected by western blot

A-549 = assay: cells; set-up: species or system transformed mammalian cell lines; MTT assay (formazan absorbance at 595 nm), anti-proliferative activity on transformed cell lines; conditions: Homo sapiens, A549; read-out: Gephyronic acid IC50
KB-3-1 = assay: cells; set-up: species or system transformed mammalian cell lines; MTT assay (formazan absorbance at 595 nm), anti-proliferative activity on transformed cell lines; conditions: Homo sapiens, KB 3-1; read-out: Gephyronic acid IC50
L-929 = assay: cells; set-up: species or system transformed mammalian cell lines; MTT assay (formazan absorbance at 595 nm), anti-proliferative activity on transformed cell lines; conditions: Mus musculus, L929; read-out: Gephyronic acid IC50
MCF-7 = assay: cells; set-up: species or system transformed mammalian cell lines; MTT assay (formazan absorbance at 595 nm), anti-proliferative activity on transformed cell lines; conditions: Homo sapiens, MCF7; read-out: Gephyronic acid IC50
PC-3 = assay: cells; set-up: species or system transformed mammalian cell lines; MTT assay (formazan absorbance at 595 nm), anti-proliferative activity on transformed cell lines; conditions: Homo sapiens, PC-3; read-out: Gephyronic acid IC50
[2] = target: T1, eukaryotic initiation factor 2 subunit alpha (eIF2α); assay: pull-down with streptavidin beads, western blot; format: biochemical; conditions: KB-3-1 cell lysate; native protein; 4 °C 1 h with compound; labelled compound; indirect binding evidence

T1 sequence (P05198 whole entry): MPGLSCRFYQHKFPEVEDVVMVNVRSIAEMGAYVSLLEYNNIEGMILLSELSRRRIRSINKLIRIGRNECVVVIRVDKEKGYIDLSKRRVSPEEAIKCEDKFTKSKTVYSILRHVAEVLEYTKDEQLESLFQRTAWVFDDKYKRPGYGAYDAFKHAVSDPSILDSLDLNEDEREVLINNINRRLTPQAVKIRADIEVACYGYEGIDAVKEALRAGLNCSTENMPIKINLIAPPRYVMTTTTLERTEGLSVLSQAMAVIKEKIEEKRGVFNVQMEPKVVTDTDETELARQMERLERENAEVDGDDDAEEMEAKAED

SMILES	DARTS (pronase protection, western blot) [1]	IC50 (A-549)	IC50 (KB-3-1)	IC50 (L-929)	IC50 (MCF-7)	IC50 (PC-3)	pull-down with streptavidin beads, western blot [2]
CO[C@@H]([C@H](C)[C@@H](O)CC(=O)O)C(C)(C)C(=O)[C@@H](C)C[C@H](C)[C@H](O)[C@@]1(C)O[C@@H]1[C@@H](C)C=C(C)C [compound 1, gephyronic acid]	GA binding protected the initiation factor eIF2α in a dose dependent manner.	0.008 µM	0.014 µM	0.1 µM	0.014 µM	0.006 µM	–
COC(=O)C[C@H](OC(=O)CCCC[C@@H]1SC[C@@H]2NC(=O)N[C@@H]21)[C@@H](C)[C@H](OC)C(C)(C)C(=O)[C@@H](C)C[C@H](C)[C@H](O)[C@]1(C)O[C@@H]1[C@@H](C)C=C(C)C [4b, biotinylated GA methyl ester 4b]	–	–	–	–	–	–	eIF2α was clearly present in preparations with biotinylated GA ester
